US6333447A, “Transgenic model of heart failure” (The General Hospital Corporation, priority 1996, dated 2001)

Assays:
[1] = test system: mice; settings: chronic administration; cited from earlier work
[2] = test system: transgenic (Gsα overexpressing) and control mice; assay: M-mode echocardiography and ECG during graded intravenous infusion of sympathomimetic amines in anesthetized mice
[3] = test system: rats; settings: infusion for several weeks; cited from earlier work
[4] = test system: transgenic (Gsα overexpressing) and wild-type control mice; assay: Left ventricular contractility (LV dP/dt) by Millar micromanometer with heart rate held constant by pacing
[5] = TG mice, isoproterenol infusion 0.005 μg/kg/min
[6] = TG mice, isoproterenol infusion 0.01 μg/kg/min
[7] = TG mice, isoproterenol infusion 0.02 μg/kg/min
[8] = TG mice, isoproterenol infusion 0.02 μg/kg/min, listed as Isoproterenol
[9] = control mice, isoproterenol infusion 0.01 μg/kg/min
[10] = control mice, isoproterenol infusion 0.02 μg/kg/min
[11] = control mice, isoproterenol infusion 0.02 μg/kg/min, listed as Isoproterenol
[12] = control mice, isoproterenol infusion 0.04 μg/kg/min
[13] = TG mice, norepinephrine infusion 0.05 μg/kg/min
[14] = TG mice, norepinephrine infusion 0.1 μg/kg/min
[15] = TG mice, norepinephrine infusion 0.2 μg/kg/min
[16] = TG mice, norepinephrine infusion 0.2 μg/kg/min, listed as Norepinephrine
[17] = control mice, norepinephrine infusion 0.1 μg/kg/min
[18] = control mice, norepinephrine infusion 0.2 μg/kg/min
[19] = control mice, norepinephrine infusion 0.2 μg/kg/min, listed as Norepinephrine
[20] = control mice, norepinephrine infusion 0.4 μg/kg/min

For `CC(C)NCC(O)c1ccc(O)c(O)c1` (centres unmarked) [isoproterenol], the Hypertrophic response [1] is given as “enhanced hypertrophic responses”, the “Ejection Fraction” value [2, 5] is given as 80.6 ± 3.2% and the “Fractional Shortening” value [2, 5] is given as 42.5 ± 3.2%. For the same molecule, the “Heart Rate” value [2, 5] was 369 ± 12 beats/min, the LVID end-diastole [2, 5] was 3.5 ± 0.3 mm and the LVID end-systole [2, 5] was 2.0 ± 0.1 mm. The “Ejection Fraction” value [2, 6] was 89.5 ± 2.6%, the “Fractional Shortening” value [2, 6] was 53.5 ± 3.5% and the “Heart Rate” value [2, 6] was 389 ± 10 beats/min. The LVID end-diastole [2, 6] was 3.4 ± 0.2 mm, the LVID end-systole [2, 6] was 1.6 ± 0.1 mm and the “Ejection Fraction” value [2, 7] was 96±1%. The “Fractional Shortening” value [2, 7] was 68±4%, the “Heart Rate” value [2, 7] was 433 beats/min and the LVID end-diastole [2, 7] was 3.1 mm. For the same molecule, the LVID end-systole [2, 7] was 1.0 ± 0.1 mm, the “Ejection Fraction” value [2, 8] was 96.3 ± 1.3% and the “Fractional Shortening” value [2, 8] was 67.9 ± 4.2%. For the same molecule, the “Ejection Fraction” value [2, 9] was 76.7 ± 1.2%, the “Fractional Shortening” value [2, 9] was 38.5 ± 1.1% and the “Heart Rate” value [2, 9] was 213 ± 16 beats/min. The LVID end-diastole [2, 9] was 4.0 ± 0.1 mm, the LVID end-systole [2, 9] was 2.4 ± 0.0 mm and the “Ejection Fraction” value [2, 10] was 86±3%. The “Fractional Shortening” value [2, 10] was 48±3%, the “Heart Rate” value [2, 10] was 236 ± 8 beats/min and the LVID end-diastole [2, 10] was 3.9 ± 0.1 mm. The LVID end-systole [2, 10] was 2.0 mm, the “Ejection Fraction” value [2, 11] was 85.8% and the “Fractional Shortening” value [2, 11] was 48.3%. For the same molecule, the “Ejection Fraction” value [2, 12] was 94.1 ± 2.0%, the “Fractional Shortening” value [2, 12] was 62.8 ± 5.7% and the “Heart Rate” value [2, 12] was 289 beats/min. For the same molecule, the LVID end-diastole [2, 12] was 3.6 ± 0.1 mm, the LVID end-systole [2, 12] was 1.3 ± 0.2 mm and the “Left ventricular end-diastolic dimensions” value ([2]; increasing doses of isoproterenol, both groups) was “decreased dose-dependently”. The Myocardial pathology [3] was “myocardial hypertrophy with cellular necrosis and replacement fibrosis”, the “Increase of left ventricular contractility (LV dP/dt) from baseline” value (“Increase” below) ([4]; transgenic mice, heart rate held constant (9.0-0.6 Hz), isoproterenol 0.02 μg/kg/min) was 33±2% and the “Increase” value ([4]; wild-type control mice, heart rate held constant (8.0±0.0 Hz), isoproterenol 0.02 μg/kg/min, baseline 6923±281 mm Hg/sec) was 13±2%.
In the case of `NC[C@H](O)c1ccc(O)c(O)c1` [norepinephrine], the “Ejection Fraction” value [2, 13] is reported as 79.8 ± 4.0%, the “Fractional Shortening” value [2, 13] is reported as 41.9 ± 3.9% and the “Heart Rate” value [2, 13] is reported as 320 ± 13 beats/min. The LVID end-diastole [2, 13] was 3.6 ± 0.1 mm, the LVID end-systole [2, 13] was 2.1 ± 0.1 mm and the “Ejection Fraction” value [2, 14] was 88.3 ± 3.8%. For the same molecule, the “Fractional Shortening” value [2, 14] was 52.2 ± 4.8%, the “Heart Rate” value [2, 14] was 322 ± 16 beats/min and the LVID end-diastole [2, 14] was 3.6 ± 0.2 mm. The LVID end-systole [2, 14] was 1.7 ± 0.2 mm, the “Ejection Fraction” value [2, 15] was 93±2% and the “Fractional Shortening” value [2, 15] was 59±4%. For the same molecule, the “Heart Rate” value [2, 15] was 341 ± 18 beats/min, the LVID end-diastole [2, 15] was 3.6 mm and the LVID end-systole [2, 15] was 1.5 ± 0.2 mm. For the same molecule, the “Ejection Fraction” value [2, 16] was 92.8 ± 2.1%, the “Fractional Shortening” value [2, 16] was 59.4 ± 4.1% and the “Ejection Fraction” value [2, 17] was 78.3 ± 0.1%. For the same molecule, the “Fractional Shortening” value [2, 17] was 39.9 ± 0.5%, the “Heart Rate” value [2, 17] was 241 ± 27 beats/min and the LVID end-diastole [2, 17] was 4.0 ± 0.1 mm. For the same molecule, the LVID end-systole [2, 17] was 2.4 ± 0.1 mm, the “Ejection Fraction” value [2, 18] was 85±3% and the “Fractional Shortening” value [2, 18] was 47±3%. For the same molecule, the “Heart Rate” value [2, 18] was 252 ± 33 beats/min, the LVID end-diastole [2, 18] was 4.1 ± 0.1 mm and the LVID end-systole [2, 18] was 2.2 mm. The “Ejection Fraction” value [2, 19] was 84.8%, the “Fractional Shortening” value [2, 19] was 47.0% and the “Ejection Fraction” value [2, 20] was 92.3 ± 2.0%. The “Fractional Shortening” value [2, 20] was 58.2 ± 3.9%, the “Heart Rate” value [2, 20] was 272 ± 44 beats/min and the LVID end-diastole [2, 20] was 4.0 ± 0.1 mm. For the same molecule, the LVID end-systole [2, 20] was 1.7 ± 0.2 mm, the Chronotropic effect ([2]; norepinephrine infusion, either group (control or transgenic)) was “no significant chronotropic effect” and the “Effect on left ventricular end-diastolic dimensions” value ([2]; norepinephrine infusion, transgenic or control group) was “no effect”. The “Increase” value ([4]; transgenic mice, heart rate held constant (8.3±1.2 Hz), norepinephrine 0.1 μg/kg/min) was 65±8% and the “Increase” value ([4]; wild-type control mice, heart rate held constant (6.0±0.0 Hz), norepinephrine 0.1 μg/kg/min, baseline 7292±461 mm Hg/sec) was 28±4%.
